Laboratory results published in ChEMBL document CHEMBL5236643, “Discovery and characterization of orally bioavailable 4-chloro-6-fluoroisophthalamides as covalent PPARG inverse-agonists” (Bioorg Med Chem, 2023).
≈ marks a conversion by molar mass, not a printed value. Calls of active or inactive are those of the source. No cut-off for these calls is given here.

Legend:
[1] = target: T1, Peroxisome proliferator-activated receptor alpha (Homo sapiens, UniProt Q07869); assay: Agonist activity at human PPARalpha expressed in CHO cells co-expressing GAL4-NHR-LBD assessed as transcriptional activation preincubated for 6 hrs followed by luciferin addition by luminescence method; type: cell-based
T1 sequence (Q07869 whole entry): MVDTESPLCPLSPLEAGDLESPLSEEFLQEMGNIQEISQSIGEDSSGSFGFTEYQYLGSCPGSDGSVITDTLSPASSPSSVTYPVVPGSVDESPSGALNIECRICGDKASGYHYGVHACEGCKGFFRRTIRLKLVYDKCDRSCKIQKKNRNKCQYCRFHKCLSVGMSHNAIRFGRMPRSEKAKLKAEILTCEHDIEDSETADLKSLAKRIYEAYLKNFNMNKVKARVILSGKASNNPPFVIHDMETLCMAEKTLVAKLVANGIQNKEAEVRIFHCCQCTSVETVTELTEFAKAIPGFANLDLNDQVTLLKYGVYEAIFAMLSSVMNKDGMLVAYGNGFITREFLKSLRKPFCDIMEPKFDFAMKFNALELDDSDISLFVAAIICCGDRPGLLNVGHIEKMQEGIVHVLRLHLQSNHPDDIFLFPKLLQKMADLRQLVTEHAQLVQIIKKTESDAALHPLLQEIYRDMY

[2] = target: T2, Peroxisome proliferator-activated receptor alpha (Homo sapiens) (UniProt Q07869); assay: Agonist activity at human PPARalpha expressed in CHO cells co-expressing GAL4-NHR-LBD assessed as transcriptional activation by measuring maximum efficacy preincubated for 6 hrs followed by luciferin addition by luminescence method; type: cell-based; conditions: filed as agonist
T2 sequence (whole entry): T1 sequence (Q07869 whole entry)

[3] = target: T3, Peroxisome proliferator-activated receptor delta (Homo sapiens, UniProt Q03181); assay: Inverse agonist activity at human PPARdelta expressed in CHO cells co-expressing GAL4-NHR-LBD assessed as transcriptional repression preincubated for 6 hrs followed by luciferin addition by luminescence method; type: cell-based
T3 sequence (Q03181 whole entry): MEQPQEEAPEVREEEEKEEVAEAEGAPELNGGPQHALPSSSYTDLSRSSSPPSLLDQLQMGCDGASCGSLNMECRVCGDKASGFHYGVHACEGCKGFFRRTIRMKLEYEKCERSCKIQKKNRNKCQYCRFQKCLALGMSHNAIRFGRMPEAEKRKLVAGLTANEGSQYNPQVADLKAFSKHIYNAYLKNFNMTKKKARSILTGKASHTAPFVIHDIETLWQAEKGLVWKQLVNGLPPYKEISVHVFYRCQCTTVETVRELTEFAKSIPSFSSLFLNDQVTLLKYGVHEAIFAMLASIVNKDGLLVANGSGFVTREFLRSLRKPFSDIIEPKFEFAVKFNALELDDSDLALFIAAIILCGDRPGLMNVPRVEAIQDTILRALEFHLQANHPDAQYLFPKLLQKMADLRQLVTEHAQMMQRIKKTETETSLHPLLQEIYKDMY

[4] = Stability in rat hepatocytes assessed as intrinsic clearance at 1 uM incubated for 1 hr by HPLC-MS/MS analysis; type: ADME, cell-based, Hepatocyte; conditions: read-out: CLH (converted)
[5] = Stability of compound in GSH at pH 7.4 assessed as parent compound remaining at 10 mM and measured after 24 hrs by HPLC-UV analysis; type: physicochemical; conditions: GSH solution, read-out: Stability
[6] = Apparent permeability across basolateral to apical side in human Caco-2 cells at 2 uM incubated for 2 hrs by LC-MS/MS analysis; type: ADME, cell-based
[7] = AUClast in NMRI-nu/nu mouse at 100 mg/kg,po measured upto 24 hrs by HPLC-MS/MS analysis; type: ADME, organism-based; set-up: time < 24 hrs, dose 100 mg/kg, route po; conditions: in vivo
[8] = Stability of compound in GSH at pH 7.4 assessed as parent compound remaining at 10 mM and measured after 4 hrs by HPLC-UV analysis; type: physicochemical; conditions: GSH solution, read-out: Stability
[9] = Stability of compound in GSH at pH 7.4 assessed as parent compound remaining at 10 mM and measured after 1 hrs by HPLC-UV analysis; type: physicochemical; conditions: GSH solution, read-out: Stability
[10] = Clearance in Wistar rat at 1 mg/kg,iv measured upto 24 hrs by HPLC-MS/MS analysis; type: ADME, organism-based; conditions: in vivo
[11] = Volume of distribution at steady state in Wistar rat at 1 mg/kg,iv measured upto 24 hrs by HPLC-MS/MS analysis; type: ADME, organism-based; conditions: in vivo, read-out: Vdss
[12] = Tmax in NMRI-nu/nu mouse at 100 mg/kg,po measured upto 24 hrs by HPLC-MS/MS analysis; type: ADME, organism-based; conditions: in vivo
[13] = Stability of compound in cysteine at pH 7.4 assessed as parent compound remaining at 10 mM and measured after 1 hrs by HPLC-UV analysis; type: physicochemical; conditions: cysteine solution, read-out: Stability
[14] = Antiproliferative activity against human UM-UC-9 assessed as inhibition of cell proliferation by measuring maximum efficacy after 7 days by IncuCyte live-cell imaging assay; type: functional; conditions: UM-UC-9, 168 h, time 7 day
[15] = Cmax in NMRI-nu/nu mouse at 100 mg/kg,po measured upto 24 hrs by HPLC-MS/MS analysis; type: ADME, organism-based; set-up: time < 24 hrs, dose 100 mg/kg, route po; conditions: in vivo
[16] = target: T4, Peroxisome proliferator-activated receptor gamma (Mus musculus) (UniProt P37238); assay: Inverse agonist activity at PPARgamma in NMRI-nu/nu mouse assessed as reduction in Fabp4 mRNA expression in adipose tissue at 100 mg/kg for 3 days and measured 6 hrs last dose by qPCR analysis; type: organism-based; conditions: time 3.0 day
T4 sequence (whole entry): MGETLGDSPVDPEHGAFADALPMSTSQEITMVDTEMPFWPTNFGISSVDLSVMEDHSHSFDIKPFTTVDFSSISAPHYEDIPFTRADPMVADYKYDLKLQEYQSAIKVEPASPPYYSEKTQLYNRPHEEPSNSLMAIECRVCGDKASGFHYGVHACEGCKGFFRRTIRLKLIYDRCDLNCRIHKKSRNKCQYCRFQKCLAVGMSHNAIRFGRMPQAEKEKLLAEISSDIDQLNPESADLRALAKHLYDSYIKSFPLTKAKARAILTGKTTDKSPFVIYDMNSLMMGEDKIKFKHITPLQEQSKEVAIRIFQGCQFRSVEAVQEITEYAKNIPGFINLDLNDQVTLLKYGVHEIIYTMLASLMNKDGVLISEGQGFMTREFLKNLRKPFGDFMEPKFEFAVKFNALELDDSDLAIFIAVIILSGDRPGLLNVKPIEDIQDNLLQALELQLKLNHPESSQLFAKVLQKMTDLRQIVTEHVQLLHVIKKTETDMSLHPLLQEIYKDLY

[17] = target: T5, Nuclear receptor subfamily 1 group I member 2 (Homo sapiens, UniProt O75469); assay: Transactivation of human PXR in human HepG2 cells co-expressing luciferase gene under control of CYP3A4 promoter assessed as increase in luciferase activity incubated for 24 hrs by luminescence based analysis; type: ADME, cell-based
T5 sequence (O75469 whole entry): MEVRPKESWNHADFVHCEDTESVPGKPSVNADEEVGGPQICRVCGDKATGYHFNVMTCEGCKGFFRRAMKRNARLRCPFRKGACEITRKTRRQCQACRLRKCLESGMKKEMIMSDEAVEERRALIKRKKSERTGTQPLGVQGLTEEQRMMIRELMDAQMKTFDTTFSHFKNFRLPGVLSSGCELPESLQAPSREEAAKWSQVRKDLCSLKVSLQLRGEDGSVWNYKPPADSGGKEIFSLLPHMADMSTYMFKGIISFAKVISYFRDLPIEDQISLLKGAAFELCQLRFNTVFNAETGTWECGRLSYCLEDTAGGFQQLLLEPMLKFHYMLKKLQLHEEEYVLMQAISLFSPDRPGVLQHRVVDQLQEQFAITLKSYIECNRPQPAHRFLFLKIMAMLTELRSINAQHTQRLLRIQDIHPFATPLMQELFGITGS

[18] = Stability of compound in GSH at pH 7.4 assessed as parent compound remaining at 10 mM and measured after 2 hrs by HPLC-UV analysis; type: physicochemical; conditions: GSH solution, read-out: Stability
[19] = Stability of compound in cysteine at pH 7.4 assessed as parent compound remaining at 10 mM and measured after 4 hrs by HPLC-UV analysis; type: physicochemical; conditions: cysteine solution, read-out: Stability
[20] = Microsomal stability in human liver microsomes assessed as intrinsic clearance at 1 uM measured upto 60 mins in presence of NADPH by HPLC-MS/MS analysis; type: ADME, Microsome; conditions: read-out: CLH (converted)
[21] = target: T4, Peroxisome proliferator-activated receptor gamma (Mus musculus); assay: Inverse agonist activity at PPARgamma in NMRI-nu/nu mouse assessed as decrease in Acaab1 mRNA expression in adipose tissue at 100 mg/kg for 3 days and measured upto 15 hrs last dose by qPCR analysis; type: organism-based; conditions: filed as inverse agonist, time 3.0 day
[22] = AUClast in Wistar rat at 1 mg/kg,iv measured upto 24 hrs by HPLC-MS/MS analysis; type: ADME, organism-based; set-up: time < 24 hrs, dose 1 mg/kg, route iv; conditions: in vivo
[23] = Thermodynamic solubility of compound at pH 6.5 PBS buffer; type: physicochemical; conditions: read-out: Therm_solubility
[24] = Stability of compound in cysteine at pH 7.4 assessed as parent compound remaining at 10 mM and measured after 2 hrs by HPLC-UV analysis; type: physicochemical; conditions: cysteine solution, read-out: Stability
[25] = Stability of compound in cysteine at pH 7.4 assessed as parent compound remaining at 10 mM and measured after 24 hrs by HPLC-UV analysis; type: physicochemical; conditions: cysteine solution, read-out: Stability
[26] = Antiproliferative activity against human UM-UC-9 assessed as inhibition of cell proliferation measured after 7 days by IncuCyte live-cell imaging assay; conditions: UM-UC-9, 168 h
[27] = Half life in Wistar rat at 1 mg/kg,iv measured upto 24 hrs by HPLC-MS/MS analysis; type: ADME, organism-based; conditions: in vivo
[28] = Clearance in Wistar rat at 0.3 mg/kg,iv measured upto 24 hrs by HPLC-MS/MS analysis; type: ADME, organism-based; conditions: in vivo
[29] = target: T4, Peroxisome proliferator-activated receptor gamma (Mus musculus); assay: Inverse agonist activity at PPARgamma in NMRI-nu/nu mouse assessed as decrease in Acaab1 mRNA expression in adipose tissue at 50 mg/kg for 3 days and measured upto 15 hrs last dose by qPCR analysis; type: organism-based; conditions: filed as inverse agonist, time 3.0 day
[30] = Volume of distribution at steady state in Wistar rat at 0.3 mg/kg,iv measured upto 24 hrs by HPLC-MS/MS analysis; type: ADME, organism-based; conditions: in vivo, read-out: Vdss
[31] = target: T4, Peroxisome proliferator-activated receptor gamma (Mus musculus); assay: Inverse agonist activity at PPARgamma in NMRI-nu/nu mouse assessed as fold reduction in Fabp4 mRNA expression in adipose tissue at 50 mg/kg for 3 days and measured 15 hrs last dose by qPCR analysis; type: organism-based; conditions: filed as inverse agonist, time 3.0 day
[32] = target: T4, Peroxisome proliferator-activated receptor gamma (Mus musculus); assay: Inverse agonist activity at PPARgamma in NMRI-nu/nu mouse assessed as reduction in Fabp4 mRNA expression in adipose tissue at 50 mg/kg for 3 days and measured 6 hrs last dose by qPCR analysis; type: organism-based; conditions: time 3.0 day
[33] = Half life in Wistar rat at 0.3 mg/kg,iv measured upto 24 hrs by HPLC-MS/MS analysis; type: ADME, organism-based; conditions: in vivo
[34] = AUClast in Wistar rat at 0.3 mg/kg,iv measured upto 24 hrs by HPLC-MS/MS analysis; type: ADME, organism-based; set-up: dose 0.3 mg/kg, time < 24 hrs, route iv; conditions: in vivo

SMILES	CLint scaled at 1 µM [4] [mL/min/kg]	remaining at 24 h, 10000 µM [5] [%]	Papp B→A at 2 h, 2 µM [6] [×10⁻⁶ cm/s]	AUC(0-t) at 24 h [7] [ng·h/mL]	remaining at 4 h, 10000 µM [8] [%]	remaining at 1 h, 10000 µM [9] [%]	Tmax [12] [h]	remaining at 1 h, 10000 µM [13] [%]	Emax [14] [%]	Cmax [15] [nM]	Activity [16]	IC50 [17] [µM]	remaining at 2 h, 10000 µM [18] [%]	remaining at 4 h, 10000 µM [19] [%]	CLint scaled at 1 µM [20] [mL/min/kg]	solubility thermodynamic [23] [µg/mL]	remaining at 2 h, 10000 µM [24] [%]	remaining at 24 h, 10000 µM [25] [%]	IC50 [26] [µM]	other results
O=C(Nc1ccncc1)c1cc([N+](=O)[O-])ccc1Cl	–	–	–	–	–	–	–	–	–	–	–	–	–	–	–	–	–	–	–	IC50 [1]: 2.95 µM; Emax [2]: 289%; IC50 [3]: > 5 µM
CC(C)(O)c1ccc(NC(=O)c2cc(C(=O)NCc3ccc(F)c(F)c3)c(F)cc2Cl)cc1	29.3	100	17.1	1900	100	100	1	100	71	3.2	inactive	> 49.8	100	100	15.5	6.55 (≈ 13.7 µM)	100	100	0.0404	clearance [10]: 93.3 mL/min/kg; Vd [11]: 1.8 L/kg; Activity [21]: Active; AUClast [22]: 0.18 kg·h/L; half-life [27]: 0.19 h
Cc1cc(OC(F)F)ccc1NC(=O)c1cc(C(=O)NCc2ccc(F)cc2)c(F)cc1Cl	28.8	32	23.8	12000	46.5	74.8	7	93	55	2100	inactive	14.7	56.4	71	12.7	0.1 (≈ 0.208 µM)	77.8	51.6	0.0194	clearance [28]: 10.3 mL/min/kg; Activity [29]: Active; Vd [30]: 2.7 L/kg; Activity [31]: Active; Activity [32]: inactive; half-life [33]: 4.8 h; AUClast [34]: 1.6 kg·h/L
